For nine molecules, IC50 results are on record in patent US12577228B2, “Dihydrocyclopenta-isoquinoline-sulfonamide derivatives compounds” (UCB Biopharma SRL, priority 2019, dated 2026).

The target in the assay is T1, IgE-Tb / soluble IgE receptor FcεRIα with a Y131A mutation (Homo sapiens, UniProt P01854, N146Q/N252Q).
T1 construct: fused on or other part: Terbium chelate (LanthaScreen amine-reactive) on IgE-Fc; Alexa Fluor 488 hydrazide on the oxidised glycans of sFcεRIα; Both are labels and no part of the key
The assay can be described thus: in vitro FRET assay: binding of IgE-Tb to receptor FcεRIα-Y131A-AF488 and its inhibition by compounds. The note with it: 5 nM IgE-Tb, 25 nM FcεRIα-Y131A-AF488, 2 hours at room temperature; read-out: FRET IC50 range.

Molecules are shown by their SMILES.

T1 sequence (P01854 104-427 N146Q/N252Q): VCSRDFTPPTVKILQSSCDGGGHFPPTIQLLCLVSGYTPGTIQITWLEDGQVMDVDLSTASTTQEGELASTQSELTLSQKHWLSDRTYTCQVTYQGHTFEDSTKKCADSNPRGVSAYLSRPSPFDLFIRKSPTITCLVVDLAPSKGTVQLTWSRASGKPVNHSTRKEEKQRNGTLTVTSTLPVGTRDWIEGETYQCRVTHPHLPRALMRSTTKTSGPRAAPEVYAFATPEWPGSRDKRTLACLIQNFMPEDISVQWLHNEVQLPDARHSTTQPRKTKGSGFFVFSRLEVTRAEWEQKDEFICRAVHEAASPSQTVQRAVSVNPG
T1 sequence (P12319 26-201 Y156A partner): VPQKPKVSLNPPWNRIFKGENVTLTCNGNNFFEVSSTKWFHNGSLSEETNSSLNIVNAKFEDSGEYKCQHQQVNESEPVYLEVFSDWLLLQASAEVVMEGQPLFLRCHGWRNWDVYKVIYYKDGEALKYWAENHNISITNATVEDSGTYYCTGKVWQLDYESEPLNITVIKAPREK

In general, IC50 refers to the concentration at which inhibition is half-maximal. For `Cc1ncsc1C(=O)N[C@@H]1Cc2cc3cnc(C4CC4)cc3c(S(=O)(=O)NCC(C)(C)F)c2C1` [Example 134, N-[(7R)-3-cyclopropyl-5-[(2-fluoro-2-methylpropyl)sulfamoyl]-7,8-dihydro-6H-cyclopenta[g]isoquinolin-7-yl]-4-methyl-1,3-thiazole-5-carboxamide], the IC50 was 100 to 2000 nM. As for `CC(C)(F)CNS(=O)(=O)c1c2c(cc3cnc(C4CC4)cc13)C[C@@H](NC(=O)c1nccc3ccccc13)C2` [Example 135, N-[(7R)-3-cyclopropyl-5-[(2-fluoro-2-methylpropyl)sulfamoyl]-7,8-dihydro-6H-cyclopenta[g]isoquinolin-7-yl]isoquinoline-1-carboxamide], the IC50 was 100 to 2000 nM. With `CC(C)(F)CNS(=O)(=O)c1c2c(cc3cnc(C4CC4)cc13)C[C@@H](NC(=O)c1ccc3c(c1)CN(C(=O)OC(C)(C)C)C3)C2` [Example 136, tert-butyl 5-[[(7R)-3-cyclopropyl-5-[(2-fluoro-2-methylpropyl)sulfamoyl]-7,8-dihydro-6H-cyclopenta[g]isoquinolin-7-yl]carbamoyl]-1,3-dihydroisoindole-2-carboxylate] the figure was 10 to 50 nM; with `Cn1cc(C(=O)C(=O)N[C@@H]2Cc3cc4cnc(C5CC5)cc4c(S(=O)(=O)NCC(C)(C)F)c3C2)cn1` [Example 137, N-[(7R)-3-cyclopropyl-5-[(2-fluoro-2-methylpropyl)sulfamoyl]-7,8-dihydro-6H-cyclopenta[g]isoquinolin-7-yl]-2-(1-methylpyrazol-4-yl)-2-oxoacetamide], 100 to 2000 nM; with `CC(C)(F)CNS(=O)(=O)c1c2c(cc3cnc(C4CC4)cc13)C[C@@H](Nc1cnc(C(=O)O)c3ccccc13)C2` [Example 138, lithium; 4-[[(7R)-3-cyclopropyl-5-[(2-fluoro-2-methyl-propyl)sulfamoyl]-7,8-dihydro-6H-cyclopenta[g]isoquinolin-7-yl]amino]isoquinoline-1-carboxylate], 50 to 100 nM. For `C[S+]([O-])c1ccc(NC2Cc3cc4cnc(C5CC5)cc4c(S(=O)(=O)NCC(C)(C)F)c3C2)cn1` (stereo not drawn) [Example 139, 3-cyclopropyl-N-(2-fluoro-2-methylpropyl)-7-[(6-methylsulfinylpyridin-3-yl)amino]-7,8-dihydro-6H-cyclopenta[g]isoquinoline-5-sulfonamide], the IC50 is 10 to 50 nM. With `Cn1ncc(NC2Cc3cc4cnc(C5CC5)cc4c(S(=O)(=O)NCC(C)(C)F)c3C2)cc1=O` (stereo not drawn) [Example 140, 3-cyclopropyl-N-(2-fluoro-2-methylpropyl)-7-[(1-methyl-6-oxopyridazin-4-yl)amino]-7,8-dihydro-6H-cyclopenta[g]isoquinoline-5-sulfonamide] the figure was 10 to 50 nM; with `CC(C)(F)CNS(=O)(=O)c1c2c(cc3cnc(C4CC4)cc13)C[C@@H](NC(=O)c1n[nH]c3cc(Br)ccc13)C2` [Example 141, 6-bromo-N-[(7R)-3-cyclopropyl-5-[(2-fluoro-2-methylpropyl)sulfamoyl]-7,8-dihydro-6H-cyclopenta[g]isoquinolin-7-yl]-1H-indazole-3-carboxamide], 100 to 2000 nM; with `CC(C)(F)CNS(=O)(=O)c1c2c(cc3cnc(C4CC4)cc13)CC(NC1=CC(=O)OC1)C2` (stereo not drawn) [Example 142, 3-cyclopropyl-N-(2-fluoro-2-methylpropyl)-7-[(5-oxo-2H-furan-3-yl)amino]-7,8-dihydro-6H-cyclopenta[g]isoquinoline-5-sulfonamide], 100 to 2000 nM.
